# From patent publication US20070128217A1 (priority 2003, published 2007)
# What was measured:
# [1] = system: antibodies in sera from SARS patients (sera 1a, 1b, 2, 6, 37, 62, London, SARS-yellow, SARS-green); format: binding, human; design: Binding of serum 6 to linear peptides of protein X1 of SARS-CoV Urbani / Binding of serum 37 to linear peptides of protein X1 of SARS-CoV Urbani / Binding of serum 6 to looped/cyclic peptide (PEPSCAN-ELISA) / Binding of serum 37 to looped/cyclic peptide (PEPSCAN-ELISA) / Binding of serum 37 to looped/cyclic peptides of protein X1 of SARS-CoV Urbani / Binding of serum 6 to linear peptides of protein X2 / Binding of serum 37 to linear peptides of protein X2 / Binding of serum 37 to looped/cyclic peptides of protein X2 of SARS-CoV Urbani / Binding of serum 6 to linear peptides of protein M of SARS-CoV Urbani / Binding of serum 37 to linear peptides of protein M of SARS-CoV Urbani / Binding of serum 6 to looped/cyclic peptides of protein M of SARS-CoV Urbani / Binding of serum 37 to looped/cyclic peptides of protein M of SARS-CoV Urbani / Binding of serum 6 to linear peptides of protein X3 of SARS-CoV Urbani / Binding of serum 37 to linear peptides of protein X3 of SARS-CoV Urbani / Binding of serum 37 to looped/cyclic peptides of protein X3 of SARS-CoV Urbani / Binding of serum 6 to linear peptides of protein X4 of SARS-CoV Urbani / Binding of serum 37 to linear peptides of protein X4 of SARS-CoV Urbani / Binding of serum 37 to looped/cyclic peptides of protein X4 of SARS-CoV Urbani / Binding of serum 6 to linear peptides of protein X5 of SARS-CoV Urbani / Binding of serum 37 to linear peptides of protein X5 of SARS-CoV Urbani / Binding of serum 37 to looped/cyclic peptides of protein X5 of SARS-CoV Urbani / Binding of serum 6 to linear peptides of protein N of SARS-CoV Urbani / Binding of serum 37 to linear peptides of protein N of SARS-CoV Urbani / Binding of serum 6 to linear peptide (PEPSCAN-ELISA) / Binding of serum 1a to looped/cyclic peptides of protein N of SARS-CoV Urbani / Binding of serum 1b to looped/cyclic peptides of protein N of SARS-CoV Urbani / Binding of serum 2 to looped/cyclic peptides of protein N of SARS-CoV Urbani / Binding of serum 6 to looped/cyclic peptides of protein N of SARS-CoV Urbani / Binding of serum 37 to looped/cyclic peptides of protein N of SARS-CoV Urbani / Binding of serum 62 to looped/cyclic peptides of protein N of SARS-CoV Urbani / Binding of serum London to looped/cyclic peptides of protein N of SARS-CoV Urbani / Binding of serum SARS-green to looped/cyclic peptides of protein N of SARS-CoV Urbani: unit not given here
# [2] = system: control sera (pooled serum of ten healthy LUMC hospital workers; commercial negative donor pooled serum from the Dutch bloodbank); format: binding, human; design: Binding of Control serum LUMC to linear peptides / Binding of Control serum Blood-bank to linear peptides / Binding of Control serum LUMC to looped peptides / Binding of Control Serum Blood-Bank to Looped peptides / Binding of Control serum LUMC to linear peptides of the protein M of SARS-CoV Urbani / Binding of Control serum Blood-bank to linear peptides of the protein M of SARS-CoV Urbani / Binding of Control serum LUMC to looped peptides of the protein M of SARS-CoV Urbani / Binding of Control Serum Blood-Bank to Looped peptides of the protein M of SARS-CoV Urbani: unit not given here
# [3] = system: rabbit serum obtained by immunizing a rabbit with the SARS-CoV strain Frankfurt 1; format: binding; design: Binding of a rabbit serum to linear peptides / Binding of a rabbit serum to looped peptides / Rabbit serum linear peptides / Rabbit serum looped peptides / Binding of a rabbit serum to linear peptides of protein N of SARS-CoV Urbani (Rabbit serum linear peptides) / Binding of a rabbit serum to looped/cyclic peptides of protein N of SARS-CoV Urbani (Rabbit serum looped peptides): unit not given here
Sequence,Binding of serum 1a to linear peptides of protein M of SARS-CoV Urbani [1],Binding of serum 1b to linear peptides of protein M of SARS-CoV Urbani [1],Binding of serum 2 to linear peptides of protein M of SARS-CoV Urbani [1],Binding of serum 6 to linear peptides of protein M of SARS-CoV Urbani [1],Binding of serum 37 to linear peptides of protein M of SARS-CoV Urbani [1],Binding of serum 62 to linear peptides of protein M of SARS-CoV Urbani [1],Binding of serum London to linear peptides of protein M of SARS-CoV Urbani [1],Binding of serum SARS-green to linear peptides of protein M of SARS-CoV Urbani [1],Binding of serum SARS-yellow to linear peptides of protein M of SARS-CoV Urbani [1],"Recognition of the peptide by sera of SARS-CoV infected individuals, and form (linear, looped/cyclic) in which it is recognized [1]",Binding of Control Serum Blood-Bank to Looped peptides of the protein M of SARS-CoV Urbani [2],Binding of Control serum Blood-bank to linear peptides of the protein M of SARS-CoV Urbani [2],Binding of Control serum LUMC to linear peptides of the protein M of SARS-CoV Urbani [2],Binding of Control serum LUMC to looped peptides of the protein M of SARS-CoV Urbani [2],Rabbit serum linear peptides [3],Rabbit serum looped peptides [3],further results
SNRNRFLYIIKLVFL,0.6,0.5,0.4,0.5,0.4,0.4,0.3,0.4,0.3,recognized in looped/cyclic form,0.7,0.7,0.7,0.9,0.5,0.6,
SYFVASFRLFARTRS,0.7,0.6,0.5,0.5,0.4,0.4,0.3,0.4,0.1,recognized in looped/cyclic form,1.0,0.6,0.5,0.9,0.2,0.4,
NLVIGFLFLAWIMLL,0.7,0.5,0.5,0.3,0.6,0.7,0.3,0.2,0.0,,0.6,0.5,0.3,0.8,0.2,0.2,Binding of serum 1a to looped/cyclic peptides of protein M of SARS-CoV Urbani [1]: 0.7; Binding of serum 1b to looped/cyclic peptides of protein M of SARS-CoV Urbani [1]: 0.6; Binding of serum 2 to looped/cyclic peptides of protein M of SARS-CoV Urbani [1]: 0.5; Binding of serum 6 to looped/cyclic peptides of protein M of SARS-CoV Urbani [1]: 0.6; Binding of serum 37 to looped/cyclic peptides of protein M of SARS-CoV Urbani [1]: 0.6; Binding of serum 62 to looped/cyclic peptides of protein M of SARS-CoV Urbani [1]: 0.7; Binding of serum London to looped/cyclic peptides of protein M of SARS-CoV Urbani [1]: 0.3; Binding of serum SARS-green to looped/cyclic peptides of protein M of SARS-CoV Urbani [1]: 0.3; Binding of serum SARS-yellow to looped/cyclic peptides of protein M of SARS-CoV Urbani [1]: 0.5
